Where a name gives a salt, the structure may show the parent alone. Read-outs that look alike come from different tables or passages of the source.
Assays:
serotonin transporter = molecular target: T1, serotonin transporter (Rattus norvegicus, UniProt P31652); experiment: biochemical; details: rat synaptosomes, serotonin transporter (SERT)
T1 construct: synaptosomes isolated in a 0.32M sucrose buffer from a male Wistar rat cortex; from tissue; host or cells: male Wistar rat cortex synaptosomes

[1] = molecular target: human serotonin reuptake transporter (Homo sapiens, UniProt P31645); experiment: cell-based; details: recombinant human serotonin transporter (SERT); read-out: Human IC50 (nM) hSERT
dopamine transporter = molecular target: T2, dopamine transporter (Rattus norvegicus, UniProt P23977); experiment: biochemical; details: rat synaptosomes, dopamine transporter (DAT)
T2 construct: synaptosomes isolated in a 0.32 M sucrose buffer from a male Wistar rat striatum; from tissue; host or cells: male Wistar rat striatum synaptosomes

[2] = molecular target: T3, human dopamine reuptake transporter (Homo sapiens, UniProt Q01959); experiment: cell-based; details: recombinant human dopamine transporter (DAT); read-out: Human IC50 (nM) hDAT
T3 construct: expressed in transfected cells; host or cells: CHO-K1 or HEK293

[3] = molecular target: human norepinephrine reuptake transporter (Homo sapiens, UniProt P23975); experiment: cell-based; details: recombinant human norepinephrine transporter (NET); read-out: Human IC50 (nM) hNET
[4] = molecular target: T4, 5-HT Transporter (SERT) Sites in Mouse Brain (Mus musculus, UniProt Q60857); experiment: Ex vivo [3H] citalopram binding after oral dosing; set-up: species or system C57BL/6 mice; details: for % Transporter Occupancy, SERT: 60 minutes after treatment, vs vehicle; for Mean Specific Binding (dpm) ± S.E.M., SERT: mice sacrificed 60 minutes after treatment, cortex
T4 construct: Whole brains were removed and cortex and striata dissected out; from tissue; host or cells: C57BL/6 mouse frontal cortex homogenate

[5] = molecular target: T5, DA Transporter (DAT) Sites in Mouse Brain (Mus musculus, UniProt Q61327); experiment: Ex vivo [3H] WIN 35428 binding after oral dosing; set-up: species or system C57BL/6 mice; details: for % Transporter Occupancy, DAT: 60 minutes after treatment, vs vehicle; for Mean Specific Binding (dpm) ± S.E.M., DAT: mice sacrificed 60 minutes after treatment, striatum
T5 construct: Striatum was used to determine occupancy of DA transporter sites; from tissue; host or cells: C57BL/6 mouse striatum homogenate

mice [6] = experiment: Mouse tail suspension test; assay type: in vivo; details: PO, 30-60 minutes before the test, 5 minutes recording
mice [7] = experiment: Mouse locomotor activity; assay type: in vivo; details: PO
Procedure: In order to ensure effects of the compounds on immobility time were not related to a general stimulant effect on baseline motor activity, locomotor activity was assessed using photocell monitored cages (Med-Associates Inc.). Each test chamber was equipped with infrared photocell beams to measure movement of the animals. Horizontal and vertical activity were measured
Rats or mice were pretreated with vehicle or test compounds and placed back in home cage, following which they will be individually placed in locomotor cages and activity was monitored in 5 minute intervals for up to 60 min.
Data were analyzed by one way analysis of variance (ANOVA) followed by post-hoc comparisons where appropriate. An effect was considered significant if p < 0.05. Data are represented as the mean and standard error to the mean (s.e.m).

T4 sequence (Q60857 whole entry): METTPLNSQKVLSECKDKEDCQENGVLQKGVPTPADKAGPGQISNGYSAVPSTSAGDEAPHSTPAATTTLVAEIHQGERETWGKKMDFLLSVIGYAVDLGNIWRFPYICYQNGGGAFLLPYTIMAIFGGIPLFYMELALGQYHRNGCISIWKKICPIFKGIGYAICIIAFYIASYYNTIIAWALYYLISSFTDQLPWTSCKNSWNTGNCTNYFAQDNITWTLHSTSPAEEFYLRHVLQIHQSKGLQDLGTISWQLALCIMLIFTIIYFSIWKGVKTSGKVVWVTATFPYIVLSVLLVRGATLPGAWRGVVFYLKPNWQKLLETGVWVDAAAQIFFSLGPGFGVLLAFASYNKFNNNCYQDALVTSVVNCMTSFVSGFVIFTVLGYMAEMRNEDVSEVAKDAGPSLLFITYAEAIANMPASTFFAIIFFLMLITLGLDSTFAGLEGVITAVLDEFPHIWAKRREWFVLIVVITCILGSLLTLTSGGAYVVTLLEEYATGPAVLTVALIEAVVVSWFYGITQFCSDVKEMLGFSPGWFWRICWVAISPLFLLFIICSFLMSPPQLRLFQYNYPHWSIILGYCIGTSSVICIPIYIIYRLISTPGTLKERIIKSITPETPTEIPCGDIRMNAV
T5 sequence (Q61327 whole entry): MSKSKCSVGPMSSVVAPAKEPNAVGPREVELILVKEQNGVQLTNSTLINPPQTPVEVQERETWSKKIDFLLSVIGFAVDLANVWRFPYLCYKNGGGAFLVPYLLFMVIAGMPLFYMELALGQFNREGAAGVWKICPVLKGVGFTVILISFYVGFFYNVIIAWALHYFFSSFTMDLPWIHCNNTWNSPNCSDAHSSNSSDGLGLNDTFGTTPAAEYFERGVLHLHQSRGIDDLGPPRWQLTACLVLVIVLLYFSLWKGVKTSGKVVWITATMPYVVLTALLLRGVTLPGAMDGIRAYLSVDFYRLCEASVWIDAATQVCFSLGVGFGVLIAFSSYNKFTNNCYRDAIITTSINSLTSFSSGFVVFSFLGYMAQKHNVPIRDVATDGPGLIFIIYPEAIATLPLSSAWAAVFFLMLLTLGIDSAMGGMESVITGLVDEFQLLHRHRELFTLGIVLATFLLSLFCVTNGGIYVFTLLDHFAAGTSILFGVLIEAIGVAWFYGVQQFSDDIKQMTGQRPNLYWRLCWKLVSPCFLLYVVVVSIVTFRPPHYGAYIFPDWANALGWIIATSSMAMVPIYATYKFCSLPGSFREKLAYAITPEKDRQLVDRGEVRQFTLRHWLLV
T1 sequence (P31652 whole entry): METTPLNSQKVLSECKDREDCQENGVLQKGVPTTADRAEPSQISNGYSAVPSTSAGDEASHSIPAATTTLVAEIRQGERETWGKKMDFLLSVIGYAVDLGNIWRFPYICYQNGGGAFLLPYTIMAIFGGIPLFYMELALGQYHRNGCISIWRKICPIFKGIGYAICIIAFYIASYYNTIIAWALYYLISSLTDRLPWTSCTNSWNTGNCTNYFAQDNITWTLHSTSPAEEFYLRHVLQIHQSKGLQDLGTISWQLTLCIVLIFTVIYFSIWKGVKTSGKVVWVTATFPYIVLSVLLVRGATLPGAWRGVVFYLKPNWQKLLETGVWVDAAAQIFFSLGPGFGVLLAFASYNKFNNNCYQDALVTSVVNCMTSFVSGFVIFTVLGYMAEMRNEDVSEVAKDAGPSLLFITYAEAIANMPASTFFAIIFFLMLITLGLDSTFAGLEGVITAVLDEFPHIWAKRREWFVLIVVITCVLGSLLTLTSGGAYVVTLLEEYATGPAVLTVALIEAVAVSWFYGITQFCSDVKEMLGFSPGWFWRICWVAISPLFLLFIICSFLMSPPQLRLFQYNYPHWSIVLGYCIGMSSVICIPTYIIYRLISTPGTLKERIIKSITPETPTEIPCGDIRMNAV
T3 sequence (Q01959 whole entry): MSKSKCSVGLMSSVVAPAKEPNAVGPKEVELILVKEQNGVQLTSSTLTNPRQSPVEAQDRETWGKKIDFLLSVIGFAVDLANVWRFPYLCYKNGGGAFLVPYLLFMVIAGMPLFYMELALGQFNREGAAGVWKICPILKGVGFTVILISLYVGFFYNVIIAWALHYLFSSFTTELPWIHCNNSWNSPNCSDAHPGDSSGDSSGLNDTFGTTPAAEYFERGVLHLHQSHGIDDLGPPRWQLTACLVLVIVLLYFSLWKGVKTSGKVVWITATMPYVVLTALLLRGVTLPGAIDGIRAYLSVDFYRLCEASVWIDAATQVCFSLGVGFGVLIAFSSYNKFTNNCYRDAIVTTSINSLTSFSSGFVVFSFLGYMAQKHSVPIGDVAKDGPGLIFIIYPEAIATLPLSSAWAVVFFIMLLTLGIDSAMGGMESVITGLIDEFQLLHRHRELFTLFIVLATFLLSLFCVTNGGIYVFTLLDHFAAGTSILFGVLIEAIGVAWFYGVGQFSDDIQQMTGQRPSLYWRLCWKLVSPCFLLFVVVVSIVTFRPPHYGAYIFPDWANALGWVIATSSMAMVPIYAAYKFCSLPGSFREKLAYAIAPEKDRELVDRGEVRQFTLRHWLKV
Chain of human serotonin reuptake transporter (P31645 whole entry): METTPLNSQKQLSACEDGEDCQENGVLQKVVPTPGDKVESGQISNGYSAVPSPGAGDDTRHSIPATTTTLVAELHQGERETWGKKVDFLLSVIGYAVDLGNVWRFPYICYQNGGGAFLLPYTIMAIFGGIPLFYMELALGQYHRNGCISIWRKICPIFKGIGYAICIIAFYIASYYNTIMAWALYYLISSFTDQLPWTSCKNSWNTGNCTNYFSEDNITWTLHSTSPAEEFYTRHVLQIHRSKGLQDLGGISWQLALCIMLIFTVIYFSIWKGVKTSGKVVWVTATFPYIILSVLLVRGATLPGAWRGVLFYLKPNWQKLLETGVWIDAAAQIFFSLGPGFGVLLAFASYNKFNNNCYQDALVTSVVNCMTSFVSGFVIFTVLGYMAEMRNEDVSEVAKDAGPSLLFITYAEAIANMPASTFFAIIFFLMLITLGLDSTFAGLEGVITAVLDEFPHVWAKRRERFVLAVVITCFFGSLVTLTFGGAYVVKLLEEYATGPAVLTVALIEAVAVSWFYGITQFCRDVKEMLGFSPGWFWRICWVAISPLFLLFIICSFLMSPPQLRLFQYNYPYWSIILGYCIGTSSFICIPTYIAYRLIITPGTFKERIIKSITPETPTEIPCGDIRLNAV
T2 sequence (P23977 whole entry): as the sequence (Q61327 whole entry) above, with P21S, V57A, S194A, R600H, V619L counted along it
Chain of human norepinephrine reuptake transporter (P23975 whole entry): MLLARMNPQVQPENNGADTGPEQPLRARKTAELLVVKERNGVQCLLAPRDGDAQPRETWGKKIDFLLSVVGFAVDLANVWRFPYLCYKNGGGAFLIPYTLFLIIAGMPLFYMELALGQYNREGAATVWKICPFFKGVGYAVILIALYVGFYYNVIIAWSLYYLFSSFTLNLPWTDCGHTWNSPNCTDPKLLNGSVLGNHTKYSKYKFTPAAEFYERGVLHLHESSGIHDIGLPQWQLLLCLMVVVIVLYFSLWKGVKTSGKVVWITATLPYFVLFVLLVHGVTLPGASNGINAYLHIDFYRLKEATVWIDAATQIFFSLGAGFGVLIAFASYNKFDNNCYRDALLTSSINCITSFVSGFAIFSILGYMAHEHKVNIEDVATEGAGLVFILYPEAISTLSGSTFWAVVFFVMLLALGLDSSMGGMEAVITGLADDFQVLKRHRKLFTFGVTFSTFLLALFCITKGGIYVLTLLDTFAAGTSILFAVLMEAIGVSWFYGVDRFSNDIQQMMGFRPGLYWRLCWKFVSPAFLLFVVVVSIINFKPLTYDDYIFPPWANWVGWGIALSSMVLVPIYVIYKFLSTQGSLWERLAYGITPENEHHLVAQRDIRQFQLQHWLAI

## CNC(C)C1(c2ccc3ccccc3c2)CCCCC1 (single isomer, unassigned) [58 E2, N-methyl-1-(1-(naphthalen-2-yl)cyclohexyl)ethanamine]
Serotonin transporter; Rat IC50 (nM) rSERT
  IC50: 100 nM

## COC1CCC(CN(C)C)(c2ccc(Cl)c(Cl)c2)CC1 (centres unmarked) [Compound 256, 1-(1-(3,4-dichlorophenyl)-4-methoxycyclohexyl)-N,N-dimethylmethanamine]
Serotonin transporter; read-out: Rat IC50 (nM) rSERT
  IC50: 280 nM
[1]
  IC50: 69 nM
Dopamine transporter; read-out: Rat IC50 (nM) rDAT
  IC50: 990 nM
[2]
  IC50: 157 nM

## NCC1(c2ccc(F)c(F)c2)CCCCC1 [Compound 30, (1-(3,4-difluorophenyl)cyclohexyl)methanamine hydrochloride]
[1]
  IC50: 4520 nM
[2]
  IC50: 5870 nM
[3]
  IC50: > 10000 nM

## CNC(C)C1(c2ccc3ccccc3c2)CCCCC1 (single isomer, unassigned) [58 E1, N-methyl-1-(1-(naphthalen-2-yl)cyclohexyl)ethanamine]
Serotonin transporter; Rat IC50 (nM) rSERT
  IC50: 9.5 nM
[4]; 1 mg/kg
  % Transporter Occupancy, SERT: 5%
  Mean Specific Binding (dpm) ± S.E.M., SERT: 3245 ± 107 dpm
[4]; 3 mg/kg
  % Transporter Occupancy, SERT: 11%
  Mean Specific Binding (dpm) ± S.E.M., SERT: 3021 ± 182 dpm
[4]; 10 mg/kg
  % Transporter Occupancy, SERT: 47%
  Mean Specific Binding (dpm) ± S.E.M., SERT: 1799 ± 115 dpm
[4]; 30 mg/kg
  % Transporter Occupancy, SERT: 86%
  Mean Specific Binding (dpm) ± S.E.M., SERT: 469 ±43 dpm
[5]; 1 mg/kg
  % Transporter Occupancy, DAT: 7%
  Mean Specific Binding (dpm) ± S.E.M., DAT: 15732 ± 1360 dpm
[5]; 3 mg/kg
  % Transporter Occupancy, DAT: 11%
  Mean Specific Binding (dpm) ± S.E.M., DAT: 14938 ± 2613 dpm
[5]; 10 mg/kg
  % Transporter Occupancy, DAT: -2%
  Mean Specific Binding (dpm) ± S.E.M., DAT: 17215 ± 2151 dpm
[5]; 30 mg/kg
  % Transporter Occupancy, DAT: 24%
  Mean Specific Binding (dpm) ± S.E.M., DAT: 12876 ± 2152 dpm

## CNCC1(c2ccc(Cl)c(Cl)c2)CCCCC1.Cl [Compound 75, 1-(1-(3,4-dichlorophenyl)cyclohexyl)-N-methylmethanamine (hydrochloride)]
Dopamine transporter; Rat IC50 (nM) rDAT
  IC50: 58 nM
Mice [6]; 3 mg/kg
  Mouse Tail Suspension Mean Immobility Time ± S.E.M.: 187.8 ± 9.6
Mice [6]; 10 mg/kg
  Mouse Tail Suspension Mean Immobility Time ± S.E.M.: 177.7 ± 5.8
Mice [6]; 30 mg/kg
  Mouse Tail Suspension Mean Immobility Time ± S.E.M.: 143.5 ± 5.8
Mice [7]; 3 mg/kg
  Mouse Locomotor Activity Total Distance Traveled ± S.E.M.: 653.5 ± 48.4
Mice [7]; 10 mg/kg
  Mouse Locomotor Activity Total Distance Traveled ± S.E.M.: 608.8 ± 83.4
Mice [7]; 30 mg/kg
  Mouse Locomotor Activity Total Distance Traveled ± S.E.M.: 655.3 ± 117.7
